Like-named read-outs stand apart in the source and are kept apart here. Where a SMILES comes first, the peptide text is derived from it. Bridges are numbered along the chain shown (N, C = ends). [ ]: non-standard residue; d: D form. 2Nal = N[C@@H](Cc1ccc2ccccc2c1)C(=O)O; Cit = NC(=O)NCCC[C@H](N)C(=O)O
Key:
[1] = test system: human peripheral blood mononuclear cells (PBMC); experiment: Cytotoxicity Test II: human PBMC, trypan blue dyeing method; format: cell-based; conditions: selective index, PBMC CC50 over anti-HIV EC50
[2] = as above; format: cell-based; conditions: human PBMC, trypan blue dyeing method, read-out: CC50 (Test II), 50% survival concentration
[3] = test system: virus-uninfected MT-4 cells; experiment: Cytotoxicity Test I: virus-uninfected MT-4 cells, MTT method; format: cell-based; conditions: for SI: CC50 (Test I)/EC50: selective index, MT-4 CC50 over anti-HIV EC50; for cytotoxicity in words, compared with conventional T134/T140: conclusion drawn from Table 3
Protocol: (§1) HIV-1 (IIIB) strain obtained from MOLT/HIV-1 (IIIB) cell previously infected by HIV-1 was used. The polypeptide of the present invention was added to MT-4 CD4^+ T cells infected by HIV in various kinds of concentrations, and a number of living cells after culturing at 37° C. for 5 days was determined by using a 3′-(4,5-dimethylthiazol-2-yl)-2,5-diphenyltetrazolinium bromide (MTT) method. Anti-HIV activity is shown by a concentration (EC50 value), where MT-4 cell death by HIV infection is inhibited by 50%. Cytotoxicity of the peptide according to the present invention was shown by a 50% survival concentration (Test I: CC50 value) by culturing virus-uninfected MT-4 cells with the polypeptide according to the present invention in various concentrations, and determining a number of living cells by the MTT method. Moreover, a number of living cells of human peripheral blood mononuclear cells (monocyte) (PBMC) was determined by trypan blue dyeing method, and shown by a 50% survival concentration (Test II: CC50 value). Respective ratios of the CC50 value and the EC50 value were shown as a selective index (SI). Obtained values were summarized in Table 3 using the conventionally known polypeptides T134 and T140, and an anti-HIV compound: 3′-azido-2′,3′-dideoxythymidine (AZT) used as a medicine as a control anti-HIV agent.

[4] = as above; format: cell-based; conditions: human, virus-uninfected MT-4 cells, MTT method, read-out: CC50 (Test I), 50% survival concentration
Protocol: as §1

HIV-1 (IIIB) strain = experiment: Anti-HIV activity: inhibition of MT-4 cell death by HIV infection (MTT method); format: cell-based; conditions: for EC50: MT-4 CD4+ T cells infected by HIV-1 (IIIB), 37° C., 5 days, MTT, average of at least three measurements, read-out: EC50 (concentration where MT-4 cell death by HIV infection is inhibited by 50%)
Protocol: as §1

in vitro = in vitro ADME, cat; conditions: serum
Protocol: T140 or TC14012 was dissolved in cat serum (100 μL/100 μL Water) in an amount of 100 nmol, and maintained at 37° C. Each 8 μL of the respective samples were collected after 0 hour, 1 hour, 2 hours, 5 hours and 16 hours, and analyzed by reverse phase HPLC using 16% acetonitrile.

SMILES | SI: CC50 (Test II)/EC50 [1] | CC50 ([2]; peripheral blood mononuclear cells (PBMC)) | SI: CC50 (Test I)/EC50 [3] | CC50 [4] | EC50 (HIV-1 (IIIB) strain; Human immunodeficiency virus 1, MT4, 120 h) | CC50 [2] | cytotoxicity in words, compared with conventional T134/T140 [3] | CC50 ([4]; MT-4 cells (virus-uninfected)) | EC50 (HIV-1 (IIIB) strain) | anti-HIV activity in words, compared with T140 (HIV-1 (IIIB) strain; conclusion drawn from Table 3) | metabolised at 16 h, 0.5 mM (in vitro)
Cc1cn([C@H]2C[C@H](N=[N+]=[N-])[C@@H](CO)O2)c(=O)[nH]c1=O [AZT, 3′-azido-2′,3′-dideoxythymidine, reference compound] | <410 | < 20 µM | 4000 | 190 µM | 0.048 µM |  |  |  |  |  | 
NCCCC[C@@H]1NC(=O)[C@H](CCCN=C(N)N)NC(=O)[C@H](Cc2ccc(O)cc2)NC(=O)[C@@H](NC(=O)[C@H](Cc2ccc3ccccc3c2)NC(=O)[C@H](CCCN=C(N)N)NC(=O)[C@@H](N)CCCN=C(N)N)CSSC[C@@H](C(=O)N[C@@H](CCCN=C(N)N)C(=O)O)NC(=O)[C@H](CCCNC(N)=O)NC(=O)[C@H](CCCN=C(N)N)NC(=O)[C@H](Cc2ccc(O)cc2)NC(=O)[C@@H]2CCCN2C(=O)[C@@H](CCCNC(N)=O)NC1=O [TC14005, H-Arg-Arg-NaI-Cys-Tyr-Arg-Lys-DCit-Pro-Tyr-Arg-Cit-Cys-Arg-OH] | 69000 |  | >20000 |  |  | 280 µM | cytotoxicity is markedly lowered | > 80 µM | 0.004 µM | substantially the same anti-HIV activity as that of the conventionally known T140 | 
NCCCC[C@@H]1NC(=O)[C@H](CCCN=C(N)N)NC(=O)[C@H](Cc2ccc(O)cc2)NC(=O)[C@@H](NC(=O)[C@H](Cc2ccc3ccccc3c2)NC(=O)[C@H](CCCN=C(N)N)NC(=O)[C@@H](N)CCCN=C(N)N)CSSC[C@@H](C(=O)N[C@@H](CCCN=C(N)N)C(=O)O)NC(=O)[C@H](CCCNC(N)=O)NC(=O)[C@H](CCCN=C(N)N)NC(=O)[C@H](Cc2ccc(O)cc2)NC(=O)[C@@H]2CCCN2C(=O)[C@@H](CCCCN)NC1=O [Compound T140, H-Arg-Arg-Nal-Cys-Tyr-Arg-Lys-DLys-Pro-Tyr-Arg-Cit-Cys-Arg-OH, reference compound] (H-RR[2Nal]CYRK[dK]PYR[Cit]CR-OH; disulfide 4-13) | 29000 |  | >>300 |  |  | 96 µM |  | > 1 µM |  |  | ~70%
NCCCC[C@@H]1NC(=O)[C@H](CCCNC(N)=O)NC(=O)[C@H](Cc2ccc(O)cc2)NC(=O)[C@@H](NC(=O)[C@H](Cc2ccc3ccccc3c2)NC(=O)[C@H](CCCN=C(N)N)NC(=O)[C@@H](N)CCCN=C(N)N)CSSC[C@@H](C(=O)N[C@@H](CCCN=C(N)N)C(=O)O)NC(=O)[C@H](CCCNC(N)=O)NC(=O)[C@H](CCCN=C(N)N)NC(=O)[C@H](Cc2ccc(O)cc2)NC(=O)[C@@H]2CCCN2C(=O)[C@@H](CCCCN)NC1=O [TC14003, H-Arg-Arg-Nal-Cys-Tyr-Cit-Lys-DLys-Pro-Tyr-Arg-Cit-Cys-Arg-OH] (H-RR[2Nal]CY[Cit]K[dK]PYR[Cit]CR-OH; disulfide 4-13) | 160000 |  | >29000 |  |  | 310 µM | cytotoxicity is markedly lowered | > 80 µM |  |  | 
NCCCC[C@@H]1NC(=O)[C@H](CCCN=C(N)N)NC(=O)[C@H](Cc2ccc(O)cc2)NC(=O)[C@@H](NC(=O)[C@H](Cc2c[nH]c3ccccc23)NC(=O)[C@H](CCCN=C(N)N)NC(=O)[C@@H](N)CCCN=C(N)N)CSSC[C@@H](C(=O)N[C@@H](CCCN=C(N)N)C(=O)O)NC(=O)[C@H](CCCNC(N)=O)NC(=O)[C@H](CCCN=C(N)N)NC(=O)[C@H](Cc2ccc(O)cc2)NC(=O)[C@@H]2CCCN2C(=O)[C@@H](CCCCN)NC1=O [Compound T134, H-Arg-Arg-Trp-Cys-Tyr-Arg-Lys-DLys-Pro-Tyr-Arg-Cit-Cys-Arg-OH, reference compound] (H-RRWCYRK[dK]PYR[Cit]CR-OH; disulfide 4-13) | 23000 |  | >>120 |  |  | 190 µM |  | > 1 µM |  |  | 

From patent US8435939B2, “Polypeptide anti-HIV agent containing the same” (priority 2000, dated 2013)
